Laboratory results taken from US11584744B2 (UNIVERSITY OF WASHINGTON, priority 2017, dated 2023).
Values after ≈ are worked out from the molar mass of the structure shown. Where two headings read alike, the source gives them in different places.

Tests used:
[1] = test system: S. pyogenes (ATCC 19615); assay: MIC susceptibility testing; format: cell-based; conditions: Streptococcus pyogenes, ATCC19615, 18 h, read-out: S. pyogenes (ATCC 19615) MIC
[2] = test system: E. coli (ATCC 25922); assay: MIC susceptibility testing; format: cell-based; conditions: Escherichia coli, ATCC25922
Procedure, shortened: (§1)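 CLSI broth microdilution in triplicate, 5×10^5 CFU/mL final, ≤0.5% DMSO; MHB for S. aureus, CA-MHB for E. coli and E. faecium, CA-MHB plus 3% laked horse blood for S. pyogenes (5% CO2).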

[3] = test system: S. aureus VISA (ATCC 700699); assay: MIC susceptibility testing; format: cell-based; conditions: Staphylococcus aureus; read-out: S. aureus VISA (ATCC 700699) MIC
Procedure, shortened: as §1

[4] = test system: E. faecium (ATCC 19434); assay: MIC susceptibility testing; format: cell-based; conditions: Enterococcus faecium, ATCC19434; read-out: E. faecium (ATCC 19434) MIC
Procedure, shortened: as §1

[5] = test system: E. faecium VRE (ATCC 51559); assay: MIC susceptibility testing; format: cell-based, Enterococcus faecium; conditions: Enterococcus faecium
Procedure, shortened: as §1

[6] = molecular target: recombinant S. aureus MetRS enzyme (Staphylococcus aureus, UniProt A0A0H2XID2); assay: Inhibition of SaMetRS, ATP depletion assay; format: biochemical
Chain of recombinant S. aureus MetRS enzyme (A0A0H2XID2 2-657): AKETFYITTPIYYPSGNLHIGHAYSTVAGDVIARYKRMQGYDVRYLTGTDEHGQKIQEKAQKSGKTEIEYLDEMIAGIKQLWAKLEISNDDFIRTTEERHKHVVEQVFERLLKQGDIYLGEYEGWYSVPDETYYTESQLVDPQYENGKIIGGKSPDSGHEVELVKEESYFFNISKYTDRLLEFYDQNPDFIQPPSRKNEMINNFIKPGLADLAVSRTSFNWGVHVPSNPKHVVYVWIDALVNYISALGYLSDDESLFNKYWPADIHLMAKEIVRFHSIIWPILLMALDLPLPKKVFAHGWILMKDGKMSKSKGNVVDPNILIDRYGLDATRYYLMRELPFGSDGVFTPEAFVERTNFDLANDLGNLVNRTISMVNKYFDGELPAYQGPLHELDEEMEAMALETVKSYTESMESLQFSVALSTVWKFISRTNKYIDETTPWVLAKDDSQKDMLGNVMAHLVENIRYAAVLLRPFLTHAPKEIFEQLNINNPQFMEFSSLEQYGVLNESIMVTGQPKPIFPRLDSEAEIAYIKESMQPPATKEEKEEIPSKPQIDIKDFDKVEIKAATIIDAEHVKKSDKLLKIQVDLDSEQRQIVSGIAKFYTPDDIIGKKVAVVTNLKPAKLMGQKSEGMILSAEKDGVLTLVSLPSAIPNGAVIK
Procedure, shortened: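 N-terminal 6-His S. aureus MetRS (25 nM) was pre-incubated 15 min at room temperature with compound, 400 μg/mL E. coli tRNA and pyrophosphatase in HEPES-KOH pH 7.9, 2% DMSO. Reaction started with 150 nM ATP plus 20 μM L-methionine, ran 120 min; remaining ATP read by Kinase-Glo luminescence, IC50 by sigmoidal nonlinear regression.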

[7] = test system: S. aureus; assay: Serum shift assays (MIC with and without 50% human serum); format: cell-based, Staphylococcus aureus; conditions: Staphylococcus aureus
Experimental: Serum shift assays: To assess the role of protein binding on compound susceptibility, MIC determinations were performed in triplicate in the presence and absence of 50% human serum. Serial threefold dilutions of 2× compound were generated in MHB and aliquoted onto 96 well plates with a DMSO limit of 0.5%. Bacteria were adjusted to 1*10^8 CFUs/mL in MHB, then further diluted 1:100 in MHB and 100% heat deactivated filter sterilized pooled human serum. Fifty microliters were added to each well of the corresponding plates, and the plates were incubated at 37° C. for ˜20 h. The lowest concentration causing ≥90% growth inhibition was recorded as the MIC.

[8] = test system: S. aureus (ATCC 29213); assay: Macromolecular synthesis assays (radiolabeled precursor incorporation); format: cell-based, Staphylococcus aureus; conditions: 30 minute incubations
Experimental: Macromolecular synthesis assays: Methods for measuring uptake of radiolabeled precursors by S. aureus (ATCC strain 29213) were adapted from previous publications. For these assays, bacteria were grown in defined media (DM): RPMI-1640 pH 7.3±0.1 without phenol red or L-glutamine (Lonza, Basel, Switzerland) supplemented with 4 mM L-glutamine (Lonza, Basel, Switzerland), 10 mM HEPES (Lonza, Basel, Switzerland), and 1% (w/v) D-glucose (Sigma Aldrich, St. Louis, Mo.). Fresh overnight cultures grown in DM at 37° C. were diluted 1:50 in pre-warmed DM and grown at 37° C. with shaking (150 rpm) until reaching an OD600 of 0.420 correlating to ˜1*10^9 CFUs/mL in mid-log phase. Each compound was assayed in quadruplicate with an 11-point three-fold serial dilution per radioisotope. A pre-warmed 96-well V-bottom plate (Corning 3894; Corning, Corning, Mass.) containing 25 μL of 4× final concentration of test compound was inoculated with 65 μL of mid-log phase bacteria (OD600 of 0.420). Both positive and negative control wells received 25 μL untreated DM and 65 μL of inoculum at the same time. After one minute, 10 μL of radiolabeled precursor (10× final concentration in DM) was added to samples and positive control wells. Final isotope concentrations for assay of [3H]-lysine (protein), [3H]-thymidine (DNA), and [3H]-uridine (RNA) were 10 μCi/mL, 2 μCi/mL, and 2 μCi/mL respectively. […] After termination, 10 μL of 10× radiolabeled precursor was added to negative control wells. The negative control consisted of adding radiolabeled precursors after termination of the bacterial incubation in order to represent background measurement of the isotope. Plates were sealed with plate tape (Thermo Fischer Scientific, Waltham, Mass.) and shaken at 250 rpm for one hour at room temperature. Aliquots of 125 μL were transferred from the 96-well V-bottom plates to 96-well filter plates (Merck Millipore, Billerica, Mass.). To bind macromolecules, the samples were passed through the filter membrane (0.45 μM hydrophilic Durapore PVDF membrane) with a vacuum manifold, then the filter was washed with 4×200 μL 10% TCA and 1×150 μL of 95% ethanol, and dried overnight in vacuum at room temperature. 25 μL Ultima Gold scintillation fluid (Perkin Elmer, Waltham, Mass.) was added to each well and DPM was quantified using a MicroBeta^2-2450 (Perkin Elmer, Waltham, Mass.) scintillation counter. The percent incorporation was determined by subtracting each well by the average negative background and dividing by the average positive incorporation×100. Error bars represent SEM between replicates. The assay was run twice with similar results.

[9] = test system: E. faecalis (ATCC 29212); assay: MIC susceptibility testing; format: cell-based; conditions: Enterococcus faecalis, ATCC29212; read-out: E. faecalis (ATCC 29212) MIC
[10] = test system: S. aureus MRSA (ATCC 43300); assay: MIC susceptibility testing; format: cell-based; conditions: Staphylococcus aureus; read-out: S. aureus MRSA (ATCC 43300) MIC
Procedure, shortened: as §1

[11] = test system: S. pneumoniae (ATCC 49619); assay: MIC susceptibility testing; format: cell-based; conditions: Streptococcus pneumoniae, ATCC49619, 18 h; medium with 3% laked horse blood; read-out: S. pneumoniae (ATCC 49619) MIC
[12] = test system: P. aeruginosa (ATCC 27853); assay: MIC susceptibility testing; format: cell-based; conditions: Pseudomonas aeruginosa, ATCC27853
[13] = test system: S. aureus MSSA (ATCC 29213); assay: MIC susceptibility testing; format: cell-based, Staphylococcus aureus; conditions: Staphylococcus aureus, 18 h; read-out: S. aureus MSSA (ATCC 29213) MIC
[14] = Cytotoxicity testing on mammalian cells (AlamarBlue, 48 hours); format: cell-based; conditions: human
Experimental: Cytotoxicity testing on mammalian cells: Compounds were assayed for cytotoxicity against CRL-8155 (human lymphoblasts) and HepG2 cells (human hepatocellular carcinoma). Cells were exposed to serial dilutions of compounds for 48 hours and toxicity was quantified using AlamarBlue (ThermoFisher Scientific, Waltham, Mass.). Assays were performed in quadruplicate and EC50 values were calculated with non-linear regression methods using software by the Collaborative Drug Database (Burlingame, Calif. www.collaborativedrug.com)

[15] = Protein binding assays, equilibrium dialysis; format: in vitro ADME, mouse; conditions: 1 μM, equilibrium dialysis 22 hours
Experimental: Protein binding assays: Compound binding to mouse plasma proteins was determined using 96-well equilibrium dialyzer plates (SDIS 9610EN, Nest Group, Inc.). Mouse plasma ([…]-SW-F, BioreclamationIVT, Westbury, N.Y.) containing compound (final concentration 1 μM) was added to a donor chamber as a 150 μL volume. The buffer solution (0.2 mM phosphate buffer, 150 μL) was added to the reciprocal acceptor chamber. Each compound was tested in triplicate. To prepare calibration solution for compound quantifications, blank wells were prepared containing only mouse plasma in a donor well and buffer solution in its acceptor well. The equilibrium dialysis was carried out by rocking the plate for 22 hours in 37° C. Once equilibrium was reached, the plasma and buffer solution from both wells were carefully removed for further analysis with liquid chromatography-tandem mass spectrometry. Plasma solution and internal standard were mixed in the presence of 80% acetonitrile. After centrifuging the solution, the supernatant was transferred to an insert. Similarly, the buffer solution from the acceptor side was prepared containing 40% acetonitrile. Calibration standards for donor and acceptor sides were prepared with compound concentrations of 50 nM, 100 nM, 250 nM, 500 nM, and 1 μM. The compound concentrations from each well were calculated from the calibration curves using Microsoft Excel. The percentage of the test compound bound was determined as follows: % Free=(Concentration buffer chamber/Concentration plasma chamber)×100% % Bound=100%−% Free

[16] = molecular target: MetRS (C. parvum) (Cryptosporidium parvum, UniProt Q5CVN0); assay: MetRS (C. parvum) enzyme inhibition; format: biochemical; conditions: read-out: (C) MetRS (C. parvum) IC50
Chain of MetRS (C. parvum) (Q5CVN0 entry or part of it): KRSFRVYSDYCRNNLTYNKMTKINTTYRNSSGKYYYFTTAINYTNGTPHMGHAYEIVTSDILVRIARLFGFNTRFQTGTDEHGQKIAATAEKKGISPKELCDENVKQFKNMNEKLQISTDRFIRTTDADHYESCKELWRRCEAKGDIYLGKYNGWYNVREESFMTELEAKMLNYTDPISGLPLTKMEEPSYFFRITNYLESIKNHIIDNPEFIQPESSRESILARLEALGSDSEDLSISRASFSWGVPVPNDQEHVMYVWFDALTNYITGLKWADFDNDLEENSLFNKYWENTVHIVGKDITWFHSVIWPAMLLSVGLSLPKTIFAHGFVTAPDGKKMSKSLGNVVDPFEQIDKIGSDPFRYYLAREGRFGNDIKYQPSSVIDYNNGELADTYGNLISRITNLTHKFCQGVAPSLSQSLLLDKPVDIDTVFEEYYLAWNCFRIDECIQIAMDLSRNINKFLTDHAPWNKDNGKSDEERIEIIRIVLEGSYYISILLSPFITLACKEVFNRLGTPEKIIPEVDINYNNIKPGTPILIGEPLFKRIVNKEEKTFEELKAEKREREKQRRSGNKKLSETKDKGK

[17] = test system: S. aureus MRSA (ATCC 33591); assay: MIC susceptibility testing; format: cell-based, Staphylococcus aureus; conditions: Staphylococcus aureus, MRSA ATCC33591; read-out: (G) MRSA (ATCC33591) MIC
Procedure, shortened: as §1

[18] = molecular target: T1, MetRS (T. brucei) (Trypanosoma brucei brucei, UniProt Q38C91); assay: MetRS (T. brucei) enzyme inhibition; format: biochemical
T1 sequence (Q38C91 1-773): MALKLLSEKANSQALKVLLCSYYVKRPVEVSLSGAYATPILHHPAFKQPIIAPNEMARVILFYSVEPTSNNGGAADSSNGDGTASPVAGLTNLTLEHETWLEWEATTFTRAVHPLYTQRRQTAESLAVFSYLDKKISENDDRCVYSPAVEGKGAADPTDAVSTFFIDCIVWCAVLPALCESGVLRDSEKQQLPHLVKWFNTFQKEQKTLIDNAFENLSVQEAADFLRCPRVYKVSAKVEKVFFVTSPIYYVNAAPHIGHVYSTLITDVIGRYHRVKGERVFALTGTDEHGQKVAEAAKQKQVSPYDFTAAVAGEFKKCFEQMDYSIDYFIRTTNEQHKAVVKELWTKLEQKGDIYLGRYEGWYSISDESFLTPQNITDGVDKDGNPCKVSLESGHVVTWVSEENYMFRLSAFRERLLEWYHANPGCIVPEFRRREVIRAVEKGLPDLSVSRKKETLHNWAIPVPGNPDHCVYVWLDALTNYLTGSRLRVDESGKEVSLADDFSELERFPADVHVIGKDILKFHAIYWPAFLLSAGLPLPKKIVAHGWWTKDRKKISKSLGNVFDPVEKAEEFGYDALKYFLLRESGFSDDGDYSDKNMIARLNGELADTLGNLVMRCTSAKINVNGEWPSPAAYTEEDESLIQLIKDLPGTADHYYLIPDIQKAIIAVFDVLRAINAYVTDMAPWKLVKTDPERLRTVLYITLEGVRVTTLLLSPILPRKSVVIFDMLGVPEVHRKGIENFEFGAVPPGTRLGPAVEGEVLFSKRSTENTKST

[19] = test system: T. cruzi; assay: T. cruzi growth inhibition; format: cell-based, Trypanosoma cruzi; conditions: read-out: (E) T. cruzi EC50
[20] = read-out: E. faecium VRE (ATCC 51559) MIC

Structure (SMILES): O=C(O)c1cn(C2CC2)c2cc(N3CCNCC3)c(F)cc2c1=O [CIP, ciprofloxacin]
- MIC [1]: 0.625 µg/mL (≈ 1.89 µM)
- MIC [2]: 0.039 µg/mL (≈ 0.118 µM)
- MIC [3]: > 10 µg/mL
- MIC [4]: 5 µg/mL (≈ 15.1 µM)
- MIC [5, 20]: 5 µg/mL (≈ 15.1 µM)
- IC50 [6]: > 10000 nM
- MIC ([7]; read-out: Avg MIC ± SEM (+50% serum), 50% human serum): 0.152 ± 0.01 µg/mL
- MIC ([7]; read-out: Avg MIC ± SEM (no serum), no serum): 0.145 ± 0.001 µg/mL
- incorporation of 3H-thymidine (DNA synthesis) [8]: selective inhibition of DNA synthesis

Structure (SMILES): Clc1cc(Cl)cc(CNCCCNc2nc3ncccc3[nH]2)c1 [Compound 1575, N1-(3,5-dichlorobenzyl)—N3-(1H-imidazo[4,5-b]pyridin-2-yl)propane-1,3-diamine]
- MIC ([1]; medium with 3% laked horse blood): > 10 µg/mL
- MIC [9]: 1.25 µg/mL (≈ 3.57 µM)
- MIC [10]: > 10 µg/mL
- MIC [2]: > 10 µg/mL
- MIC [11]: > 10 µg/mL
- MIC [12]: > 10 µg/mL
- MIC [13]: 10 µg/mL (≈ 28.6 µM)
- CC50 at 48 h ([14]; CRL-8155 cells (human lymphoblasts), read-out: Mamm. cells (CRL8155) CC50): 12.2 µg/mL (≈ 34.8 µM)
- CC50 at 48 h ([14]; HepG2 cells (human hepatocellular carcinoma), read-out: Mamm. cells (HepG2) CC50): > 17.5 µg/mL
- MIC [5, 20]: 0.625 µg/mL (≈ 1.78 µM)
- IC50 ([6]; recombinant enzyme, lower limit of detection 0.025 μM, read-out: MetRS S. aureus (enzyme) IC50): < 25 nM

Structure (SMILES): CCCn1c(Cc2ccc(Cl)cc2Cl)cn(Cc2nc3nc(F)ccc3[nH]2)c1=O [Compound 2069, 4-[(2,4-dichlorophenyl)methyl]-1-({5-fluoro-1H-imidazo[4,5-b]pyridin-2-yl}methyl)-3-propyl-2,3-dihydro-1H-imidazol-2-one]
- % binding to mouse plasma [15]: 99.6%
- IC50 [16]: < 40 nM
- MIC [17]: 0.445 µg/mL (≈ 1.02 µM)
- IC50 [18]: < 40 nM
- MIC ([5]; E. faecium ATCC 51559, read-out: (I) E. faecium (ATCC 51559) MIC): > 2 µg/mL
- IC50 ([6]; read-out: (B) MetRS (S. aureus) IC50): < 25 nM
- MIC ([7]; 50% human serum, read-out: Avg MIC ± SEM (+50% serum)): 18.3 ± 2.2 µg/mL
- MIC ([7]; no serum, read-out: Avg MIC ± SEM (no serum)): 0.036 ± 0.03 µg/mL
- EC50 ([19]; Trypanosoma cruzi): 91.3 nM
- EC50 [19]: 176 nM
